Laboratory results published in US12037344B2, “NLRP3 modulators” (INNATE TUMOR IMMUNITY, INC., priority 2018, dated 2024).

How the values were obtained:
THP-1 cells = assay: Measurement of IL-1β production, hTRF protocol (second alternative procedure), THP-1 cells; format: cell-based, human; settings: Homo sapiens, THP-1, IL-1β production, human; read-out: NLRP3 hILIB EC50
Outline: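 Compounds, dilution series starting at a final 10 μM, were incubated 2 hours at 37° C with PMA-differentiated THP-1 cells (50 ng/ml overnight; 50,000 cells/well, 2% FBS RPMI). Released IL-1β quantified in supernatant by hTRF kit with 1:40 antibody dilution, 4° C overnight, 665/615 nm ratio.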

TLR7 = molecular target: T1, TLR7 (Homo sapiens, UniProt Q9NYK1); assay: In vitro human TLR7 binding reporter assay (HEK-Blue, NF-kB/AP1-inducible SEAP); format: cell-based; settings: activity range class, read-out: TLR7 Agonist EC50
T1 construct: human HEK-Blue cells co-expressing a TLR7 or TLR8 gene
T1 sequence (Q9NYK1 27-1049): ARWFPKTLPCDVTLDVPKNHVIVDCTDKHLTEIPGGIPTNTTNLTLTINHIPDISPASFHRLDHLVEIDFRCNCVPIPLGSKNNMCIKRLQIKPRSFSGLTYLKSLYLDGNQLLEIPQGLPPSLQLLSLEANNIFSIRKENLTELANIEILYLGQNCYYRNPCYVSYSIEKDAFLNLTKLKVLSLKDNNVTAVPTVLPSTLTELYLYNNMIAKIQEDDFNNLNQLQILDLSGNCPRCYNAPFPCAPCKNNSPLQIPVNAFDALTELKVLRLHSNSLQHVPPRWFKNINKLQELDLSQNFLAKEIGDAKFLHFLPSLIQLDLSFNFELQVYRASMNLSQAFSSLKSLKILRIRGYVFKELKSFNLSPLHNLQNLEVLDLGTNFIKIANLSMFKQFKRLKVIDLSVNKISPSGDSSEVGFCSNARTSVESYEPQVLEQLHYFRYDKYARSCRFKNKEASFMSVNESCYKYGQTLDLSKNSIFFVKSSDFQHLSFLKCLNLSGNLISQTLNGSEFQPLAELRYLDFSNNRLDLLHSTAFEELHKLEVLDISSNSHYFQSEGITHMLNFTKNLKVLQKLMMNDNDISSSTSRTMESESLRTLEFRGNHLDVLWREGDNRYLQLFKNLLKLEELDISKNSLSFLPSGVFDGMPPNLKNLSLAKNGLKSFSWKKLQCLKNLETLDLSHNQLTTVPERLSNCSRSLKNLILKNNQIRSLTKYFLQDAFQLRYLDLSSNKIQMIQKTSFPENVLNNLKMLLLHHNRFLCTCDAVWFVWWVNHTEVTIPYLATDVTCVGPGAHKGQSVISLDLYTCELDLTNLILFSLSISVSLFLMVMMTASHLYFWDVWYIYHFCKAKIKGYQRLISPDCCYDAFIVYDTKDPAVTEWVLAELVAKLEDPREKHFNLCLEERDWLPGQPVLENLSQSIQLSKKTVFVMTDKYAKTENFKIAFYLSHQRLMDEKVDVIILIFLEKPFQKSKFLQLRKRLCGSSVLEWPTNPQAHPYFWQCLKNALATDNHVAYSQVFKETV
Outline: (§1)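 Cells are seeded and grown for 24 h. Compounds or DMSO are then added and incubated 18 h at 37 °C. Quanti-Blue is added, and SEAP is read after thirty minutes. EC50 values are normalized, with RLU from 50 μM reference standard setting 100% Ymax.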

TLR8 = molecular target: T2, TLR8 (Homo sapiens, UniProt Q9NR97); assay: In vitro human TLR8 binding reporter assay (HEK-Blue, NF-kB/AP1-inducible SEAP); format: cell-based; settings: activity range class, read-out: TLR8 Agonist EC50
T2 construct: human HEK-Blue cells co-expressing a TLR7 or TLR8 gene
T2 sequence (Q9NR97 27-1041): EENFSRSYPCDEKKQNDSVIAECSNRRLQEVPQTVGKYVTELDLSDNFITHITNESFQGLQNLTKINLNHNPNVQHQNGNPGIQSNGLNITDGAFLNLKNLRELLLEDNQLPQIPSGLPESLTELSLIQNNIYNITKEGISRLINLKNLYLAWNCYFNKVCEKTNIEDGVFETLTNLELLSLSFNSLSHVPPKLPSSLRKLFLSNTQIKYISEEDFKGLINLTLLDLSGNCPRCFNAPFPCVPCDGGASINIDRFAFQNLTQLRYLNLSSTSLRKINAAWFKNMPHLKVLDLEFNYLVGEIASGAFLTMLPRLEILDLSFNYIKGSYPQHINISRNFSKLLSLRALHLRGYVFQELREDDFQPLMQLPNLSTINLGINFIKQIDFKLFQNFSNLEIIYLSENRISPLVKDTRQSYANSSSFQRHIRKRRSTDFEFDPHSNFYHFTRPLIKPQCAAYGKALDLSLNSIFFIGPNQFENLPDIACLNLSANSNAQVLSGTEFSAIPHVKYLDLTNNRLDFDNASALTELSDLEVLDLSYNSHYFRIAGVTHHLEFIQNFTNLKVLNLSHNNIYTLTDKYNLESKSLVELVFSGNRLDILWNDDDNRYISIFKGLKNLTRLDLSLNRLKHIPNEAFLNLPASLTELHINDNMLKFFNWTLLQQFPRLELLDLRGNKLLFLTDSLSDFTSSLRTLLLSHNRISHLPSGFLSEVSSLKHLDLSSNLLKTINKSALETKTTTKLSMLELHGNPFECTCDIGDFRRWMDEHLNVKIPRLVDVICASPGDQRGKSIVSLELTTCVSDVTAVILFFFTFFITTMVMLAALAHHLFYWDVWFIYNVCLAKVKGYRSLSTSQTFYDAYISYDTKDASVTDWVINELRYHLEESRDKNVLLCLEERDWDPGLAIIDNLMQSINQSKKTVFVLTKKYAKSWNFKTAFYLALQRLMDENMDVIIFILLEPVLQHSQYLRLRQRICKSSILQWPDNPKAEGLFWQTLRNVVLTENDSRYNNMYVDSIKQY
Outline: as §1

**Q.** With Nc1nc2cc(-c3cc[nH]n3)ccc2c2nn(CC3(CO)CC3)cc12 [Example 353] as the compound, how does the EC50 (THP-1 cells) read?
**A.** The EC50 was 0.61 µM.

**Q.** What about the EC50 (TLR7) of the same compound?
**A.** The EC50 was greater than 100 µM.

**Q.** What about the EC50 (TLR8) of the same compound?
**A.** Its EC50 is greater than 100 µM.

**Q.** Which results are given for Nc1nc2cc(-c3cc[nH]n3)ccc2c2nn(CCC(F)F)cc12 [Example 354]?
**A.** EC50 (THP-1 cells): 0.3 µM; EC50 (TLR7): > 100 µM; EC50 (TLR8): > 100 µM

**Q.** Which EC50 (THP-1 cells) does the source give for Cc1nc(Cn2cc3c(N)nc4cc(-c5cc[nH]n5)ccc4c3n2)no1 [Example 355] here?
**A.** Its EC50 is 2.57 µM.

**Q.** And the EC50 (TLR7)?
**A.** The EC50 was greater than 100 µM.

**Q.** What about the EC50 (TLR8) of the same compound?
**A.** The EC50 was greater than 100 µM.

**Q.** For CCC(CO)Cn1cc2c(N)nc3cc(-c4cc[nH]n4)ccc3c2n1 (stereo not drawn) [Example 356], which EC50 (THP-1 cells) is on record?
**A.** Its EC50 is 0.83 µM.

**Q.** And the EC50 (TLR7)?
**A.** Its EC50 is greater than 100 µM.

**Q.** And the EC50 (TLR8)?
**A.** Its EC50 is greater than 100 µM.

**Q.** With Nc1nc2cc(-c3cc[nH]n3)ccc2c2nn(Cc3cc[nH]n3)cc12 [Example 357] as the compound, how does the EC50 (THP-1 cells) read?
**A.** The EC50 was 0.19 µM.

**Q.** What about the EC50 (TLR7) of the same compound?
**A.** Its EC50 is greater than 100 µM.

**Q.** What about the EC50 (TLR8) of the same compound?
**A.** The EC50 was greater than 100 µM.

**Q.** Which EC50 (THP-1 cells) does the source give for Nc1nc2cc(-c3cc[nH]n3)ccc2c2nn(Cc3cn[nH]c3)cc12 [Example 358] here?
**A.** The EC50 was 0.18 µM.

**Q.** What about the EC50 (TLR7) of the same compound?
**A.** Its EC50 is greater than 100 µM.

**Q.** What about the EC50 (TLR8) of the same compound?
**A.** Its EC50 is greater than 100 µM.

**Q.** Which EC50 (THP-1 cells) does the source give for Nc1nc2cc(-c3cc[nH]n3)ccc2c2c1cnn2Cc1cn[nH]c1 [Example 359] here?
**A.** Its EC50 is 1.45 µM.

**Q.** And the EC50 (TLR7)?
**A.** The EC50 was greater than 100 µM.

**Q.** And the EC50 (TLR8)?
**A.** The EC50 was greater than 100 µM.

**Q.** Which results are given for Nc1nc2cc(-c3cc[nH]n3)ccc2c2nn(Cc3cccnn3)cc12 [Example 360]?
**A.** EC50 (THP-1 cells): 0.11 µM; EC50 (TLR7): > 100 µM; EC50 (TLR8): > 100 µM

**Q.** Nc1nc2cc(-c3cc[nH]n3)ccc2c2nn(CCc3c[nH]cn3)cc12 [Example 361] was tested. Which EC50 (THP-1 cells) did it give?
**A.** Its EC50 is 0.19 µM.

**Q.** What about the EC50 (TLR7) of the same compound?
**A.** The EC50 was greater than 100 µM.

**Q.** What about the EC50 (TLR8) of the same compound?
**A.** Its EC50 is greater than 100 µM.

**Q.** For Nc1nc2cc(-c3cc[nH]n3)ccc2c2nn(Cc3cscn3)cc12 [Example 362], which EC50 (THP-1 cells) is on record?
**A.** Its EC50 is 0.07 µM.

**Q.** And the EC50 (TLR7)?
**A.** Its EC50 is greater than 100 µM.

**Q.** And the EC50 (TLR8)?
**A.** The EC50 was greater than 100 µM.

**Q.** Nc1nc2cc(-c3cc[nH]n3)ccc2c2nn(C[C@@H]3CC(F)(F)CN3)cc12 [Example 363] was tested. Which EC50 (THP-1 cells) did it give?
**A.** The EC50 was 1.84 µM.

**Q.** And the EC50 (TLR7)?
**A.** Its EC50 is greater than 100 µM.

**Q.** And the EC50 (TLR8)?
**A.** The EC50 was greater than 100 µM.

**Q.** Nc1nc2cc(-c3cc[nH]n3)ccc2c2nn(C[C@H](O)CO)cc12 [Example 364] was tested. Which EC50 (THP-1 cells) did it give?
**A.** The EC50 was 1.47 µM.

**Q.** And the EC50 (TLR7)?
**A.** Its EC50 is greater than 100 µM.

**Q.** What about the EC50 (TLR8) of the same compound?
**A.** Its EC50 is greater than 100 µM.

**Q.** How did the EC50 (THP-1 cells) turn out when Nc1nc2cc(-c3cc[nH]n3)ccc2c2nn(C[C@@H](O)CO)cc12 [Example 365] was run?
**A.** Its EC50 is 1.88 µM.

**Q.** What about the EC50 (TLR7) of the same compound?
**A.** The EC50 was greater than 100 µM.

**Q.** And the EC50 (TLR8)?
**A.** The EC50 was greater than 100 µM.

**Q.** How did the EC50 (THP-1 cells) turn out when CCC(O)Cn1cc2c(N)nc3cc(-c4cc[nH]n4)ccc3c2n1 (stereo not drawn) [Example 366] was run?
**A.** Its EC50 is 0.42 µM.

**Q.** What about the EC50 (TLR7) of the same compound?
**A.** Its EC50 is greater than 100 µM.

**Q.** And the EC50 (TLR8)?
**A.** The EC50 was greater than 100 µM.

**Q.** With CC[C@H](O)Cn1cc2c(N)nc3cc(-c4cc[nH]n4)ccc3c2n1 [Example 367] as the compound, how does the EC50 (THP-1 cells) read?
**A.** The EC50 was 0.23 µM.

**Q.** And the EC50 (TLR7)?
**A.** Its EC50 is greater than 100 µM.

**Q.** And the EC50 (TLR8)?
**A.** The EC50 was greater than 100 µM.

**Q.** With CC[C@@H](O)Cn1cc2c(N)nc3cc(-c4cc[nH]n4)ccc3c2n1 [Example 368] as the compound, how does the EC50 (THP-1 cells) read?
**A.** The EC50 was 0.52 µM.

**Q.** And the EC50 (TLR7)?
**A.** The EC50 was greater than 100 µM.

**Q.** And the EC50 (TLR8)?
**A.** The EC50 was greater than 100 µM.

**Q.** C[C@H](O)Cn1cc2c(N)nc3cc(-c4cc[nH]n4)ccc3c2n1 [Example 369] was tested. Which EC50 (THP-1 cells) did it give?
**A.** Its EC50 is 0.19 µM.

**Q.** What about the EC50 (TLR7) of the same compound?
**A.** The EC50 was greater than 100 µM.

**Q.** What about the EC50 (TLR8) of the same compound?
**A.** The EC50 was greater than 100 µM.

**Q.** How did the EC50 (THP-1 cells) turn out when C[C@@H](O)Cn1cc2c(N)nc3cc(-c4cc[nH]n4)ccc3c2n1 [Example 370] was run?
**A.** Its EC50 is 0.38 µM.

**Q.** And the EC50 (TLR7)?
**A.** Its EC50 is greater than 100 µM.

**Q.** What about the EC50 (TLR8) of the same compound?
**A.** Its EC50 is greater than 100 µM.

**Q.** With CC(C)OCC(O)Cn1cc2c(N)nc3cc(-c4cc[nH]n4)ccc3c2n1 (stereo not drawn) [Example 371] as the compound, how does the EC50 (THP-1 cells) read?
**A.** The EC50 was 1.94 µM.

**Q.** And the EC50 (TLR7)?
**A.** The EC50 was greater than 100 µM.

**Q.** And the EC50 (TLR8)?
**A.** The EC50 was greater than 100 µM.
